Data from patent US11021435B2, “Serotonin receptor-targeting compounds and methods” (priority 2014, dated 2021).
Entries after “also recorded” stand apart in the source; their conditions may differ.

Assays:
[1] = biological target: T1, human 5-HT7 receptors (5-HT7a) (Homo sapiens, UniProt P34969); assay: Radioligand competition binding ([3H]5-CT), HEK293 cells stably expressing human 5-HT7 receptors; conditions: Affinity Ki 5-HT7, our unreported observations
T1 construct: expressed in transfected cells
From the text: FIGS. 4A-4C show the effects of 5-FPT are stereospecific. […] Data are expressed as the mean±SEM.

[2] = biological target: T2, 5-HT2A (Homo sapiens, UniProt P28223); assay: Radioreceptor competitive binding, [3H]ketanserin (4-PAT series); conditions: 2.0 nM [3H]ketanserin; HCl salts; read-out: Affinity (Ki ± SEM) 5-HT2A
Procedure: (§1) Radioreceptor competitive binding assays were carried out to assess the binding affinities of the compounds of the invention. Radioligand competitive displacement binding assays were performed in 96-well plates, using 3-5 μg of protein from membrane samples per well. Each concentration point in the binding experiments was performed in triplicates of samples, and each experiment was performed a minimum of three times. […] Non-specific binding was determined in the presence of or 10 μM mianserin for all three 5-HT2 receptors or 10 μM triprolidine for H1 receptors. Radioreceptor binding assay mixtures were incubated for 1.0 hour at 37° C., with termination by rapid filtration through Whatman GF/B filters using a 96-well cell harvester (Tomtec, Hamden, Conn.), which were subsequently washed five times with 50 mM Tris-HCl at room temperature. Filters containing bound [^3H]radioligand were dried, placed in vials containing 2 mL scintillation cocktail (ScintiVerse), allowed to equilibrate overnight, and then were counted for ^3H-induced scintillation using a Beckman-Coulter LS6500 counter.
(§2) Competition binding data were analyzed using nonlinear regression curve-fitting algorithms in GraphPad Prism, 6 for Windows (San Diego, Calif.). […] Ligand affinity was expressed as an approximation of Ki values by conversion of the IC50 value using the Cheng-Prusoff equation […] where L was the concentration of radioligand.

[3] = biological target: H1 (Homo sapiens, UniProt P35367); assay: Radioreceptor competitive binding, [3H]mepyramine (4-PAT series); conditions: for Ki: 1.0 nM [3H]mepyramine, read-out: Affinity (Ki ± SEM) H1
Procedure: as §1, §2

[4] = biological target: T3, 5-HT2C (Homo sapiens, UniProt P28335); assay: Radioreceptor competitive binding, [3H]mesulergine (4-PAT series); conditions: read-out: Affinity (Ki ± SEM) 5-HT2C
T3 sequence (P28335 33-458): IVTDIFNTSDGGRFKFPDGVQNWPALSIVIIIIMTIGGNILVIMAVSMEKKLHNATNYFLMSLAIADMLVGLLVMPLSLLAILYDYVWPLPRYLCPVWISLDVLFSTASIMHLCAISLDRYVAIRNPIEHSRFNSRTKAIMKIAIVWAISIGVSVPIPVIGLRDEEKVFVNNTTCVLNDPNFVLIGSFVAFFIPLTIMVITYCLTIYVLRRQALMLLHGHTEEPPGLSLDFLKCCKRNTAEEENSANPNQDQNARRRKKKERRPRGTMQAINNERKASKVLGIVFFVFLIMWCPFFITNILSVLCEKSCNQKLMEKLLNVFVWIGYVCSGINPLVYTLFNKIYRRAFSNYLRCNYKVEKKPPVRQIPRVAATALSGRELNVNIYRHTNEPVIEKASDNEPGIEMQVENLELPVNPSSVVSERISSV
Procedure: as §1, §2

[5] = biological target: T4, 5-HT2B (Homo sapiens, UniProt P41595); assay: as above; conditions: 1.95 nM [3H]mesulergine; read-out: Affinity (Ki ± SEM) 5-HT2B
Procedure: as §1, §2

[6] = biological target: T5, histamine H1 receptor (Homo sapiens, UniProt P35367); assay: Receptor-mediated inositol phosphate hydrolysis, transfected HEK293 cells; format: cell-based
T5 construct: expressed in transfected cells; host or cells: HEK293, transient
Procedure: (§3) Functional responses of analog 7l and 5-HT (positive control agonist, data not shown) by measuring 5-HT2 and H1 receptor-mediated inositol phosphate hydrolysis were assessed. In brief, transiently transfected HEK293 cells were labeled with 1 μCi/ml [3H]myoinositol and seeded into 48-well plates. Cells were treated with test compounds for 30 minutes. The reaction was stopped by addition of 50 mM formic acid. Anion-exchange columns (Bio-Rad Laboratories, Hercules, Calif.) were used to bind and collect [3H]inositol phosphates. 3H-induced scintillations then were measured. Each experiment included a minimum of triplicate measurements for each concentration of test compound, and each experiment was performed a minimum of three times.

[7] = biological target: T3, 5-HT2C; assay: as above; format: cell-based; design: expressed in transfected cells; host or cells: HEK293, transient
Procedure: as §3, with “In” for “Functional responses of analog 7l and 5-HT (positive control agonist, data not shown) by measuring 5-HT2 and H1 receptor-mediated inositol phosphate hydrolysis were assessed. In”

[8] = biological target: T2, 5-HT2A; assay: as above; format: cell-based; design: expressed in transfected cells; host or cells: HEK293, transient; conditions: concentrations up to 10 μM
Procedure: as §3

[9] = biological target: T4, 5-HT2B; assay: as above; format: cell-based; design: expressed in transfected cells; host or cells: HEK293, transient
Procedure: as §3

[10] = test system: C57BI/6J mice; assay: DOI-elicited head-twitch response (HTR) in C57BI/6J mice
From the text: The 5-HT2A receptor is a predominant 5-HT receptor in the cortex, and serves important excitation modulation functions on glutamate pyramidal and GABA neurons.

[11] = biological target: T2, 5-HT2A; design: expressed in transfected cells; host or cells: HEK293, transient; conditions: cited from earlier work
[12] = biological target: T4, 5-HT2B; design: expressed in transfected cells; host or cells: HEK293, transient; conditions: cited from earlier work

Chain of H1 (P35367 whole entry): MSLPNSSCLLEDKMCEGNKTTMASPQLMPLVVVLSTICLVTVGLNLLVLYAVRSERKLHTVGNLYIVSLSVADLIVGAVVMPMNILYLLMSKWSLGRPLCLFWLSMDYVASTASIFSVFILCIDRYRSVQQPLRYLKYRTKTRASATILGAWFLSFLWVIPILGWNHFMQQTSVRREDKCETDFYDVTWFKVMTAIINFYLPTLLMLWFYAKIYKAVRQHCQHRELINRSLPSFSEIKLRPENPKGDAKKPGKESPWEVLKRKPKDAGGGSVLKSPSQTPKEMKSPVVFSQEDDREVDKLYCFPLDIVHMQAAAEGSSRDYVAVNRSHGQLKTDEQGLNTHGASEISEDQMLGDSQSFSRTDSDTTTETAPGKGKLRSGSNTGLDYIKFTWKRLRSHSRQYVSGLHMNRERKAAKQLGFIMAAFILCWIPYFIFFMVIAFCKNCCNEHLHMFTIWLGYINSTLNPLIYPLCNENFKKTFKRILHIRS
T4 sequence (P41595 whole entry): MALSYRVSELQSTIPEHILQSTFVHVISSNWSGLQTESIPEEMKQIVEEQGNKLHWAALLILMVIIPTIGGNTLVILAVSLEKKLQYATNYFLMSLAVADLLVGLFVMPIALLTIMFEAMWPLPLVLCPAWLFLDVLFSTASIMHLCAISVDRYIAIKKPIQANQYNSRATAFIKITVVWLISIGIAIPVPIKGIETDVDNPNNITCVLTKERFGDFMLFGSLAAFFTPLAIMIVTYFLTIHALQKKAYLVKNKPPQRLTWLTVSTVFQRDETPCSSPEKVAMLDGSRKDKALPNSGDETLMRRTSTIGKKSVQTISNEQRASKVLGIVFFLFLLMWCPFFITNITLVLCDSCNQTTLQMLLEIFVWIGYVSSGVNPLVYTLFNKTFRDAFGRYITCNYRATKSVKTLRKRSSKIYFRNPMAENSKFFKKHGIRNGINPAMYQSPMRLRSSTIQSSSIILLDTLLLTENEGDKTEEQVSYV
T2 sequence (P28223 whole entry): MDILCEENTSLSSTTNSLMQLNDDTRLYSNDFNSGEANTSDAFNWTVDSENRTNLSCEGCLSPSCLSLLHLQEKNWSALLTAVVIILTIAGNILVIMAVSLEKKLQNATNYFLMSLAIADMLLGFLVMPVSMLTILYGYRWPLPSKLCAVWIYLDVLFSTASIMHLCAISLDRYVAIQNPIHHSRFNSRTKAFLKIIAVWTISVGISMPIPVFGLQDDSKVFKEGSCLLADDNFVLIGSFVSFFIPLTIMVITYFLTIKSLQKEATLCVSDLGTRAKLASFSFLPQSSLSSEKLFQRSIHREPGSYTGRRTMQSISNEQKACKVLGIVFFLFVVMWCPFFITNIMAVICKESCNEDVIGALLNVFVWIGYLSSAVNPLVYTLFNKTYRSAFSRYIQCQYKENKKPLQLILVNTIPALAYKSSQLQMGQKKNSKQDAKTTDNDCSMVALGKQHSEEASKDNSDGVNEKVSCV
T5 sequence (P35367 whole entry): as the sequence (P35367 whole entry) above
T1 sequence (P34969 1-445 isoform P34969-2): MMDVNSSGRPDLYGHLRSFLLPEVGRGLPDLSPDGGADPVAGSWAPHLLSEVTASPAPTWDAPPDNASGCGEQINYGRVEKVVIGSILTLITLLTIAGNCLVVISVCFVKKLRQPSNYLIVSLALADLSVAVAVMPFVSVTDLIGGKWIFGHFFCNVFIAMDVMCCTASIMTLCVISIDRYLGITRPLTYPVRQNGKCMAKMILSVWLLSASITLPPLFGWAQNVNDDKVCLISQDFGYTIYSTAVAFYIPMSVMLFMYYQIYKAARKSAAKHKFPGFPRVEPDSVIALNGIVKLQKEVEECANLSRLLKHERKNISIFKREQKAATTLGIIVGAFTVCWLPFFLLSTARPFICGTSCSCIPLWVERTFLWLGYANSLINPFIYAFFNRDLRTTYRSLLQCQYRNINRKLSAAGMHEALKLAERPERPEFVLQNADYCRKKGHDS

Q: For `COc1cc(CC(C)N)c(OC)cc1I` (racemic) [DOI, (±)-2,5-dimethoxy-4-iodoamphetamine, reference compound], which Ki [1] is on record?
A: > 1000 nM

Q: Which results are given for `COc1cc2c(cc1Cl)C[C@@H](N(C)C)C[C@@H]2c1ccccc1` (single isomer, unassigned)?
A: Ki [2]: 160 ± 24 nM; Ki [3]: 1.2 ± 0.6 nM; Ki [4]: 24 ± 2.5 nM; Ki [5]: 17.3 ± 5.33 nM

Q: Which Ki [2] does the source give for `COc1cc2c(cc1Cl)C[C@@H](N(C)C)C[C@H]2c1ccccc1` (single isomer, unassigned) [Compound 7c, Cis-4-Phenyl-6-methoxy-7-chloro-N,N-dimethyl-1,2,3,4-tetrahydronaphthalen-2-amine] here?
A: 2300 nM

Q: What about the “Lower H1 receptor affinity than (+)-cis-PAT 1c analog” value [3] of the same compound?
A: about 10 fold

Q: What about the Ki [3] of the same compound?
A: > 1000 nM

Q: What about the Ki [4] of the same compound?
A: 1600 nM

Q: What about the Ki [5] of the same compound?
A: 2500 nM

Q: Which results are given for `COc1cc2c(cc1Cl)C[C@@H](N(C)C)C[C@H]2c1ccccc1` (single isomer, unassigned) [Compound 7d, Cis-4-Phenyl-6-methoxy-7-chloro-N,N-dimethyl-1,2,3,4-tetrahydronaphthalen-2-amine]?
A: Ki [2]: 320 ± 42 nM; Ki [3]: 10.8 ± 0.6 nM; Ki [4]: 96 ± 18 nM; Ki [5]: 43 ± 5 nM

Q: Which results are given for `COc1cc2c(cc1Cl)CC(N(C)C)CC2c1cccc(Cl)c1` (single isomer, unassigned) [Compound 7f]?
A: Ki [2]: 50 ± 20 nM; Ki [3]: 18.9 ± 0.7 nM; Ki [4]: 9 ± 2 nM; Ki [5]: 56 nM

Q: Which results are given for `COc1cc2c(cc1Cl)C[C@@H](N(C)C)C[C@@H]2c1cccc(Br)c1` (single isomer, unassigned) [Compound 7i, Trans-4-(3′-Bromophenyl)-6-methoxy-7-chloro-N,N-dimethyl-1,2,3,4-tetrahydronaphthalen-2-amine]?
A: Ki [2]: 79 ± 14 nM; Ki [3]: 650 ± 21 nM; Ki [4]: 350 ± 130 nM; Ki [5]: 169 ± 27 nM

Q: Which Ki [2] does the source give for `COc1cc2c(cc1Cl)C[C@@H](N(C)C)C[C@@H]2c1cccc(Br)c1` (single isomer, unassigned) [Compound 7j, Trans-4-(3′-Bromophenyl)-6-methoxy-7-chloro-N,N-dimethyl-1,2,3,4-tetrahydronaphthalen-2-amine] here?
A: 61 ± 15 nM

Q: What about the Ki [3] of the same compound?
A: 230 ± 33 nM

Q: What about the Ki [4] of the same compound?
A: 130 ± 43 nM

Q: What about the Ki [5] of the same compound?
A: 50 nM

Q: What does the source list for `COc1ccc2c(c1)[C@@H](c1cccc(Cl)c1)C[C@H](N(C)C)C2` (single isomer, unassigned) [Compound 7k, Trans-4-(3′-Chlorophenyl)-6-methoxy-N,N-dimethyl-1,2,3,4-tetrahydronaphthalen-2-amine]?
A: Ki [2]: 350 ± 16 nM; Ki [3]: 740 ± 80 nM; Ki [4]: 280 ± 30 nM; Ki [5]: 310 ± 41 nM

Q: What does the source list for `COc1ccc2c(c1)[C@@H](c1cccc(Cl)c1)C[C@H](N(C)C)C2` (single isomer, unassigned) [Compound 7l, Trans-4-(3′-Chlorophenyl)-6-methoxy-N,N-dimethyl-1,2,3,4-tetrahydronaphthalen-2-amine]?
A: Ki [2]: 35 ± 3 nM; Efficacy H1, Imax ([6]; inverse agonist): −25 ± 1.5%; IC50 ([6]; mean ± S.E.M.): 48 nM; Reduced affinity at H1 receptors compared to unsubstituted PAT (7b) [3]: > 40 fold; Ki [3]: 86 ± 18 nM; Ki [4]: 17 ± 1 nM; Ki [5]: 65 nM; Emax ([7]; HEK293, read-out: Efficacy 5-HT2C, EMAX): 73 ± 6%; EC50 ([7]; read-out: Function 5-HT2C, EC50 (agonist potency)): 19 ± 1 nM; Function 5-HT2A (activation) [8]: did not activate; Function 5-HT2A (activation) ([8]; listed as 71): No; Efficacy 5-HT2B, Imax ([9]; inverse agonist): Imax = −17 ± 4.6%; IC50 ([9]; mean ± S.E.M.): 51 nM

Q: Which results are given for `CN(C)[C@@H]1Cc2cc(Cl)c(O)cc2[C@@H](c2ccccc2)C1` (single isomer, unassigned) [Compound 7m, Trans-4-Phenyl-6-hydroxy-7-chloro-N,N-dimethyl-1,2,3,4-tetrahydronaphthalen-2-amine]?
A: Ki [2]: 70 ± 2.6 nM; Ki [3]: 109 ± 17 nM; Ki [4]: 1000 nM; Ki [5]: 1200 nM

Q: Which Ki [2] does the source give for `CN(C)[C@@H]1Cc2cc(Cl)c(O)cc2[C@@H](c2ccccc2)C1` (single isomer, unassigned) [Compound 7n, Trans-4-Phenyl-6-hydroxy-7-chloro-N,N-dimethyl-1,2,3,4-tetrahydronaphthalen-2-amine] here?
A: 60 ± 5.4 nM

Q: What about the Ki [3] of the same compound?
A: 3 ± 1 nM

Q: And the Ki [4]?
A: 23 ± 3 nM

Q: And the Ki [5]?
A: 91 nM

Q: Which “DOI-elicited HTR” value ([10]; C57BI/6J mice, DOI 1 mg/kg, 5-FPT up to 5.6 mg/kg, AS-19 10 mg/kg, DPAT 0.5 mg/kg) does the source give for `Cc1nn(C)c(C)c1-c1cccc2c1CC[C@H](N(C)C)C2` [AS-19, reference compound] here?
A: suppressed the DOI HTR; also recorded: attenuated the HTR

Q: What about the “Locomotor behavior and serotonin syndrome seen in the DOI HTR assay” value ([10]; data not shown) of the same compound?
A: neither (−)-DPAT, a 5-HT1A partial agonist, nor AS-19 affected locomotor behavior or caused obvious serotonin syndrome

Q: Which “Activation of 5-HT2A receptors by reported selective 5-HT2C agonists” value [11] does the source give for `C[C@H](N)Cn1ccc2cc(F)c(Cl)cc21` [Ro60-0175] here?
A: also activate

Q: What about the “Activation of 5-HT2B receptors by reported selective 5-HT2C agonists” value [12] of the same compound?
A: also activate

Q: Which “Activation of 5-HT2A receptors by reported selective 5-HT2C agonists” value [11] does the source give for `C[C@H]1CNCCc2ccc(Cl)cc21` [lorcaserin] here?
A: also activate

Q: What about the “Activation of 5-HT2B receptors by reported selective 5-HT2C agonists” value [12] of the same compound?
A: also activate
